One experiment addresses T1, rat KCNK3/TASK-1 (Rattus norvegicus, UniProt O54912).
T1 construct: expressed in transfected cells; host or cells: CHO cells (tetracycline-inducible)
The experiment in a line: Thallium flux through rat TASK-1 (KCNK3-CHO cells). Type of experiment: cell-based. To be noted: Tl+ flux; 3 nM to 30 μM; read-out: rTASK-1 IC50. How it is done: CHO cells expressing recombinant tetracycline-inducible rat KCNK3/TASK-1 (KCNK3-CHO cells) were plated in poly-D-lysine coated 384-well plates at a density of 6,000 cells/well (50 μl/well of 120,000 cells/mL) and allowed to incubate for 72 hrs in the presence of 5% CO2 and 1 μg/mL tetracycline at 30° C. HEK cells expressing recombinant tetracycline-inducible human KCNK9/TASK-3 (KCNK9-HEK cells) were plated at a density of 15,000 cells per well (50 μl/well, 300,000 cells/mL) and incubated overnight at 37° C. and 5% CO2 in the presence of 1 μg/mL tetracycline.
Drug plates were generated from 10 mM 100% DMSO mother plates. Compounds were transferred to 384-well drug plates and titrated with sequential 1:3 dilutions in 100% DMSO for a total of 9 dilutions. A dilution plate is made by taking 2.4 μl from the mother plate and adding to […] of assay buffer for a 12% DMSO dilution plate. From this dilution plate, a final daughter plate is generated by taking 1 μA of the dilution plate and adding to 40 μA of assay buffer for a final DMSO concentration of 0.3%. Each compound was evaluated in duplicate and the concentration range evaluated was 3 nM to 30 μM.
When thallium was added to extracellular solution with a stimulus to open channels, Tl^+ flowed down its concentration gradient into the cells and channel activity was detected with an indicator dye, FluxOR™, that increased in cytosolic fluorescence. The FluxOR™ indicator dye was loaded into cells as a membrane permeable acetoxymethyl ester. On the day of each assay, FluxOR™ assay buffer was made fresh from Hank's Balanced Saline Solution (HBSS) buffered with 20 mM HEPES and pH adjusted to 7.4 with NaOH. Dye loading solution was prepared per manufacturer's instructions, and 25 μl of dye solution applied to each well with a multidropper after plating medium was removed manually from cells. Dye was allowed to load for 90 minutes at room temperature in the dark.
After the 90 min dye loading incubation and subsequent manual dye removal, 24 μl of the drug daughter plate was transfer to cell plates by a cybi-well system and then incubated at room temperature for 20 minutes to allow for equilibration within wells. Stimulation buffer was prepared from 5× chloride-free buffer, thallium, and potassium sulfate containing 5 times the desired final assay concentration of 10 mM K^+ 2.8 mM Tl^+. Cell plates were then transferred to an FDSS 6000 kinetic imaging plate reader (Hamamatsu). Fluorescence at 525 nm (excitation 488 nm) was measured for 10 seconds at 1 Hz to establish baseline for the entire plate. After baseline was established, 6 μl/well of stimulation buffer was added and fluorescence signal recorded for another 140 seconds.
From the fluorescence signals in the absence and presence of Galleon compounds, Inhibitory concentration curves were plotted and IC50 values were estimated using a curve fitting algorithm.

Experiment [1] relates to spontaneously breathing rats. Description: Dose-dependent effect on minute ventilation (MV) in naive rats. Type of experiment: in vivo, rat. How it is done:
All surgical procedures were performed under anesthesia induced by 2% isoflurane in compressed medical grade air. With rats in supine position, the right femoral vein was catheterized using polyethylene tubing (PE-50). This catheter was used for fluid and drug administration. Simultaneously, the right femoral artery was also catheterized for monitoring blood pressure. In order to measure the respiratory parameters in spontaneously breathing rats, trachea was intubated using 13 gauge tracheal tube (2.5 mm ID, Instech Solomon, Pa.).
After establishing a stable base-line at 1.5% isoflurane, cumulative dose-dependent (0.01, 0.03, 0.1, 0.3, 1, 3, 10 mg/kg) ventilatory responses to compounds (XXXVI) and (L), labeled as cmpd (A) and cmpd (B) respectively, were generated from spontaneously breathing rats. Maximum peak minute ventilatory (MV) values at each dose of corresponding drug were calculated and used for generating ED50 values.

T1 sequence (O54912 whole entry): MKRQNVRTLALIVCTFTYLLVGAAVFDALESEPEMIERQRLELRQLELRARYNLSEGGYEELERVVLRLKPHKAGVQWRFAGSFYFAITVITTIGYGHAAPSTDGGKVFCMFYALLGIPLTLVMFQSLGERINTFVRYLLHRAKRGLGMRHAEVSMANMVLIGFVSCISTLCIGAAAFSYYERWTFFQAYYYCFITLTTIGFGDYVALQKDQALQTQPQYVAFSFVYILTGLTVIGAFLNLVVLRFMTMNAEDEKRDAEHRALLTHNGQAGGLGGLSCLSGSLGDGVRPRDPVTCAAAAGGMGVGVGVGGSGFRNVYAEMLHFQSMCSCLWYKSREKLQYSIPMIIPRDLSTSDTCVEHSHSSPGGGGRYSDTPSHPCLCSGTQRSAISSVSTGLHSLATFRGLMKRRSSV

Usually IC50 stands for the concentration that inhibits the measured activity by half. As a reminder, the ED50 is the midpoint of the dose-response relation. Take `CCCNc1nc(NCCC)nc(N(C)OC)n1.O=S(=O)(O)O` [XXXVI, N-(4,6-Bis-n-propylamino-[1,3,5]triazin-2-yl)-N,O-dimethyl-hydroxylamine hydrogen sulfate]: the IC50 at rat KCNK3/TASK-1 is 25 µM. Moreover, in experiment [1] (Rattus norvegicus, iv, read-out: ED50, maximum peak minute ventilation), the ED50 was found to be 0.14 mg/kg. The “minute ventilation, dose dependence” value in experiment [1] (cumulative IV doses, 1.5% isoflurane) is “increased minute ventilation in a dose-dependent manner”.

These data come from patent US9162992B2, “Compounds and compositions for treatment of breathing control disorders or diseases” (GALLEON PHARMACEUTICALS, INC., priority 2010, dated 2015).
